Data: patent US4001315A, “Prostaglandin derivatives” (American Home Products Corporation, priority 1975, dated 1977)

Assays:
[1] = Hypotension in the anesthetized dog by the intravenous route; format: in vivo
Protocol: In the use of the compounds of the invention to produce hypotensive effects in warm-blooded animals, administration by the injectable route is preferred, preferably the intravenous route.
Thus in the anesthetized dog by the intravenous route the dose to produce hypotension is from about 1 mg/kg. to about 200 mg/kg. and preferably from about 10 mg/kg. to about 100 mg/kg. Using this procedure the following results were obtained.

[2] = system: bronchoconstricting effects of a standard dose of acetylcholine; test: Bronchodilation by aerosol inhalation in the guinea pig (method of Rosenthale et al.); format: in vivo; set-up: dose or concentration left out as unconfirmed
From the text: In using the compounds of the invention to produce bronchodilating effects in warm-blooded animals, they may be administered in a variety of dosage forms: oral, injectable, and aerosol inhalation. Aerosol inhalation is a preferred method because of its rapid onset of action, great potency, and specificity of action. The particular dosage to obtain the bronchodilating effect will vary with the particular compound employed, the particular animal involved, and the degree of bronchodilation desired. […] The bronchodilation produced upon aerosol inhalation can be observed by the method of Rosenthale et al., J. Pharmacol. Exp. Ther., 178, 541 (1971). Using this procedure the following result was obtained.

Structure (SMILES) | Δb.p. ([1]; Dose 100 mg/kg.) | Percent Inhibition of the bronchoconstricting effects of a standard dose of acetylcholine [2] | Δb.p. ([1]; Dose 10 mg/kg.)
CCCCC[C@H](O)/C=C/[C@H]1CC[C@](C)(O)[C@@H]1C/C=C\CCCC(=O)O [7-(5α-Hydroxy-2β-[(3S)-3-Hydroxy-Trans-1-Octenyl]-5β-Methyl-1α-Cyclopentyl)-Cis-5-Heptenoic Acid] | -23 mm. Hg | – | –
CCCCC[C@H](O)/C=C/[C@H]1CC[C@@](C)(O)[C@@H]1C/C=C\CCCC(=O)O [7-(5β-Hydroxy-2β-[(3S)-3-Hydroxy-Trans-1-Octenyl]-5α-Methyl-1α-Cyclopentyl)-Cis-5-Heptenoic Acid] | -19 mm. Hg | – | –
C#CC(O)(/C=C/[C@H]1CCC(O)(C#C)[C@@H]1C/C=C\CCCC(=O)O)CCCCC (stereo partly drawn) [7-[(5RS)-5-Ethynyl-2β-((3RS)-3-Ethynyl-3-Hydroxy-Trans-1-Octenyl)-5-Hydroxy-1α-Cyclopentyl]-Cis-5-Heptenoic Acid] | -26 mm. Hg | 48% | –
C#CC1(O)CC[C@H](/C=C/[C@@H](O)CCCCC)[C@H]1C/C=C\CCCC(=O)O (stereo partly drawn) [7-[(5RS)-5-Ethynyl-5-Hydroxy-2β-((3S)-3-Hydroxy-Trans-1-Octenyl)-1α-Cyclopentyl]-Cis-5-Heptenoic Acid] | – | – | -40 mm. Hg
